In US20070203144A1, “Use of Memantine and Brimonidine to Attenuate Vitreoretinal Vascular Endothelial Growth Factor (VEGF) Protein Levels in Animals” (Allergan, Inc., priority 2006, published 2007):

Assays:
[1] = test system: VEGF protein; experiment: Vitreal VEGF protein level in STZ-induced diabetic Long Evans rats; assay type: in vivo; details: STZ diabetic LE rats, mini-osmotic pump, STZ/Veh 228, Veh/Veh 164
Method: Long Evans (LE) rats were treated with vehicle or streptozotocin (1×, 65 mg/kg). After 7 days, vehicle treated rats were treated further with a second vehicle and STZ treated diabetic rats were treated either with a second vehicle, Brimonidine (1 mg/kg/d) as a positive control, Panagonist A (300 ug/kg/d) or panagonist B (300 ug or 3 mg/kg/d) for another 3 wks using mini-osmotic pumps. Note that the synthesis of these two panagonists is known in the art. The panagonists have the following structure [drawing 1]
At end of the study, animals were sacrificed & vitreal VEGF protein level was measured as described earlier.
Long Evans rats were treated with vehicle or streptozotocin (1×, 65 mg/kg). After 7 days, vehicle treated rats were treated further with a second vehicle and STZ treated diabetic rats were treated either with a second vehicle, Brimonidine (1 mg/kg/d) as a positive control, or the Alpha 2B selective agonist, [drawing 2] (“2B Agonist”) (300 ug or 3 mg/kg/d) for another 3 wks using mini-osmotic pumps At end of the study, animals were sacrificed & vitreal VEGF protein level was measured as described earlier.

[2] = test system: blood-retinal barrier (BRB); experiment: Retinal BRB breakdown in STZ-treated BN rats; assay type: in vivo, Brown Norway (BN) rats; details: 5 wks, Mem 10 mg/kg/day or Bri 1 mg/kg/day for 4 wks after 1 wk of STZ, STZ/Veh 22.9, Veh/Veh 9.1
Method: (§1) Male Brown Norway (BN) rats were randomized into 4 different groups based on basal glucose and body weight. Using one time IP injection, one group of animals was treated with vehicle and other 3 groups were treated with 65 mg/kg streptozotocin (STZ). Within two days after STZ-treatment, blood glucose of the animals reached to 400 mg/dl from 100 mg/dl. After one wk of vehicle or STZ treatment, vehicle treated animals were further treated with a second vehicle for another 4 wks (Veh/Veh-35 D) and STZ treated animals were treated with either a second vehicle (STZ-35D/Veh-28D), Memantine, Mem (10 mg/kg/day) (STZ-35D/Mem-28D) or Brimonidine, Bri (1 mg/kg/day) for 4 wks (STZ-35D/Bri-28D) using mini osmotic pumps.

[3] = test system: VEGF protein; experiment: VEGF protein levels in vitreous fluid of STZ-treated BN rats; assay type: in vivo, Brown Norway (BN) rats; details: 5 wks, Mem 10 mg/kg/day or Bri 1 mg/kg/day for 4 wks after 1 wk of STZ, STZ/Veh 259, Veh/Veh 157
Method: as §1

[4] = test system: VEGF protein; experiment: VEGF protein levels in vitreous fluid of non-diabetic BN rats; assay type: in vivo, Brown Norway (BN) rats; details: Mem 10 mg/kg/day or Bri 1 mg/kg/day for 28 days
[5] = test system: VEGF protein; experiment: VEGF protein levels in retina of STZ-treated BN rats; assay type: in vivo, Brown Norway (BN) rats; details: 5 wks, Mem 10 mg/kg/day or Bri 1 mg/kg/day for 4 wks after 1 wk of STZ, STZ/Veh 719, Veh/Veh 482
Method: as §1

[6] = 300 ug/kg/d for 3 wks (1 wk after STZ)
[7] = 3 mg/kg/d for 3 wks (1 wk after STZ)

Compound	VEGF protein levels in vitreous fluid [1, 6] [pg/mL]	VEGF protein levels in vitreous fluid [1, 7] [pg/mL]	BRB breakdown in retina [2]	VEGF protein levels in vitreous fluid ([1]; 1 mg/kg/d for 3 wks (1 wk after STZ)) [pg/mL]	VEGF protein levels in vitreous fluid [3] [pg/mL]	difference in vitreous fluid VEGF protein levels vs vehicle [4]	VEGF protein levels in retina [5] [pg/mg protein]
Cc1cccc([C@@H](C)c2c[nH]c(=S)[nH]2)c1C [panagonist B]	122	109	–	–	–	–	–
Brc1c(NC2=NCCN2)ccc2nccnc12 [Brimonidine, brimonidine]	–	–	12.2 ul plasma/g retina dry weight/hr	133	140	no difference	455
S=c1[nH]cc(CC2CC=CC2)[nH]1 [2B Agonist]	148	130	–	–	–	–	–
c1cnc2c(c1)CC[C@@H](Cc1c[nH]cn1)C2 [panagonist A]	133	–	–	–	–	–	–
CC12CC3CC(C)(C1)CC(N)(C3)C2 [Memantine, memantine]	–	–	11.9 ul plasma/g retina dry weight/hr	–	160	no difference	475
